Test results published in ChEMBL document CHEMBL1201862, “PubChem BioAssay data set” (2004).
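48-hour exposure; five concentrations; linearly interpolated endpoints. GI50 marks 50% less growth.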 The source made the active and inactive calls. Cut-off read from the data, not from the text of the source: active = GI50 up to about 1.1 µM and inactive = higher.

Experiments:
Assay in all cases: NCI tumour cell line growth inhibition, 48 h
[1] = test system: NCI-H23
[2] = test system: HT-29
[3] = test system: RPMI-8226
[4] = test system: A549
[5] = test system: HOP-92
[6] = test system: SK-OV-3
[7] = test system: U-251
[8] = test system: KM12
[9] = test system: OVCAR-3
[10] = test system: K562
[11] = test system: MOLT-4
[12] = test system: NCI-H522
[13] = test system: SF-268
[14] = test system: SF-539
[15] = test system: UO-31
[16] = test system: SF-295
[17] = test system: UACC-62
[18] = test system: SK-MEL-2
[19] = test system: DLD-1
[20] = test system: HOP-18
[21] = test system: HCT-116
[22] = test system: Malme-3M
[23] = test system: COLO 205
[24] = test system: HOP-62
[25] = test system: M19-MEL
[26] = test system: ACHN
[27] = test system: SW-620
[28] = test system: IGROV-1
[29] = test system: UACC-257
[30] = test system: HL-60
[31] = test system: NCI-H460
[32] = test system: CCRF-CEM
[33] = test system: NCI-H226
[34] = test system: LXFL 529
[35] = test system: SK-MEL-5
[36] = test system: SNB-19
[37] = test system: OVCAR-5
[38] = test system: SNB-75
[39] = test system: SK-MEL-28
[40] = test system: TK-10
[41] = test system: 786-0
[42] = test system: MDA-N
[43] = test system: BT-549
[44] = test system: PC-3
[45] = test system: RXF 393
[46] = test system: HCT-15
[47] = test system: OVCAR-8
[48] = test system: NCI/ADR-RES
[49] = test system: T47D
[50] = test system: SR
[51] = test system: HCC 2998
[52] = test system: M14
[53] = test system: LOX IMVI
[54] = test system: MDA-MB-435
[55] = test system: OVCAR-4
[56] = test system: CAKI-1
[57] = test system: Hs-578T
[58] = test system: SN12C
[59] = test system: DU-145
[60] = test system: A498
[61] = test system: MCF7
[62] = test system: MDA-MB-231
[63] = test system: EKVX

COc1cc(C2C(Cl)C(=O)N2NC(=O)c2ccc(NC(C)=O)cc2)cc(OC)c1OC (centres undefined)
GI50 [1]: > 100 µM (inactive) | GI50 [2]: > 100 µM (inactive) | GI50 [3]: > 100 µM (inactive) | GI50 [4]: > 100 µM (inactive) | GI50 [5]: > 100 µM (inactive) | GI50 [6]: > 100 µM (inactive) | GI50 [7]: > 100 µM (inactive) | GI50 [8]: > 100 µM (inactive) | GI50 [9]: > 100 µM (inactive) | GI50 [10]: > 100 µM (inactive) | GI50 [11]: > 100 µM (inactive) | GI50 [12]: > 100 µM (inactive) | GI50 [13]: > 100 µM (inactive) | GI50 [14]: > 100 µM (inactive) | GI50 [15]: > 100 µM (inactive) | GI50 [16]: > 100 µM (inactive) | GI50 [17]: > 100 µM (inactive) | GI50 [18]: > 100 µM (inactive) | GI50 [19]: > 100 µM (inactive) | GI50 [20]: > 100 µM (inactive) | GI50 [21]: > 100 µM (inactive) | GI50 [22]: > 100 µM (inactive) | GI50 [23]: > 100 µM (inactive) | GI50 [24]: > 100 µM (inactive) | GI50 [25]: > 100 µM (inactive) | GI50 [26]: > 10 µM (inactive) | GI50 [27]: > 100 µM (inactive) | GI50 [28]: > 100 µM (inactive) | GI50 [29]: > 100 µM (inactive) | GI50 [30]: > 100 µM (inactive) | GI50 [31]: > 100 µM (inactive) | GI50 [32]: > 100 µM (inactive) | GI50 [33]: > 100 µM (inactive) | GI50 [34]: > 100 µM (inactive) | GI50 [35]: > 100 µM (inactive) | GI50 [36]: > 100 µM (inactive) | GI50 [37]: > 100 µM (inactive) | GI50 [38]: > 100 µM (inactive) | GI50 [39]: > 100 µM (inactive) | GI50 [40]: > 100 µM (inactive)

CCOC(=O)CC[C@H](N)C(=O)N[C@H](Cc1ccc(N(CCCl)CCCl)cc1)C(=O)OCC
GI50 [41]: 0.703 µM (active) | GI50 [1]: 0.857 µM (active) | GI50 [42]: 16.1 µM (inactive) | GI50 [43]: 9.25 µM (inactive) | GI50 [2]: 3.92 µM (inactive) | GI50 [3]: 7.06 µM (inactive) | GI50 [4]: 3.54 µM (inactive) | GI50 [44]: 3.63 µM (inactive) | GI50 [5]: 0.561 µM (active) | GI50 [6]: 4.54 µM (inactive) | GI50 [45]: 0.879 µM (active) | GI50 [7]: 6.47 µM (inactive) | GI50 [8]: 3.32 µM (inactive) | GI50 [9]: 3.59 µM (inactive) | GI50 [10]: > 34.4 µM (inactive) | GI50 [11]: 1.18 µM (inactive) | GI50 [46]: 4.39 µM | GI50 [12]: 1.41 µM (inactive) | GI50 [13]: 0.414 µM (active) | GI50 [14]: 1.99 µM (inactive) | GI50 [15]: 0.419 µM (active) | GI50 [16]: 3.21 µM (inactive) | GI50 [47]: 2.97 µM (inactive) | GI50 [17]: 1.51 µM (inactive) | GI50 [48]: 4.26 µM (inactive) | GI50 [18]: 12.3 µM (inactive) | GI50 [49]: 0.239 µM (active) | GI50 [50]: 0.09 µM (active) | GI50 [51]: 1.2 µM (inactive) | GI50 [52]: 1.42 µM (inactive) | GI50 [53]: 4.61 µM (inactive) | GI50 [21]: 5.78 µM (inactive) | GI50 [22]: 4.94 µM (inactive) | GI50 [23]: 0.977 µM (active) | GI50 [24]: 2.26 µM (inactive) | GI50 [54]: 24.9 µM (inactive) | GI50 [55]: 5.18 µM (inactive) | GI50 [56]: 0.154 µM (active) | GI50 [26]: 0.0706 µM (active) | GI50 [27]: 3.56 µM (inactive) | GI50 [28]: 2.71 µM (inactive) | GI50 [29]: 10 µM (inactive) | GI50 [30]: 4.16 µM (inactive) | GI50 [57]: 2.39 µM (inactive) | GI50 [31]: 1.58 µM (inactive) | GI50 [58]: 1.79 µM (inactive) | GI50 [32]: 1.96 µM (inactive) | GI50 [33]: 7.76 µM (inactive) | GI50 [59]: 0.348 µM (active) | GI50 [60]: 8.53 µM (inactive) | GI50 [61]: 1.21 µM (inactive) | GI50 [35]: 45.3 µM (inactive) | GI50 [62]: 6.55 µM (inactive) | GI50 [36]: 16.1 µM (inactive) | GI50 [63]: 6.03 µM (inactive) | GI50 [37]: 5.06 µM (inactive) | GI50 [38]: 0.468 µM (active) | GI50 [39]: 25.8 µM (inactive) | GI50 [40]: 2.26 µM (inactive)
